Laboratory results taken from patent publication US20170333591A9, “ABSORBENT ARTICLE COMPRISING MALODOR REDUCTION COMPOSITIONS” (The Procter & Gamble Company, priority 2014, published 2017).

Experiment: Log of liquid dish neat product liquid-air partition coefficient
Format: physicochemical
Details: not given

Structure (SMILES)	Comment Code: Log of liquid dish neat product liquid-air partition coefficient
CC(C)CC(=O)OCc1ccccc1 [Material 645]	K (Log of liquid dish neat product liquid-air partition coefficient greater than or equal to 7)
CC1=C2CC(C(C)(C)O)CCC2(C)CCC1 (stereo not drawn) [Material 872]	K (Log of liquid dish neat product liquid-air partition coefficient greater than or equal to 7)
CC(O)C(C)/C=C1\C[C@H]2C[C@@H]1[C@@H]1C=CC[C@H]21 (stereo partly drawn) [Material 359]	K (Log of liquid dish neat product liquid-air partition coefficient greater than or equal to 7)
Cc1cc(O)cc(C)c1Cl [Material 557]	K (Log of liquid dish neat product liquid-air partition coefficient greater than or equal to 7)
CC(=O)[C@@]1(C)CC2=C(CCCC2(C)C)C[C@@H]1C [Material 215]	K (Log of liquid dish neat product liquid-air partition coefficient greater than or equal to 7)
Cc1n[nH]cc1-c1ccccc1 [Material 808]	K (Log of liquid dish neat product liquid-air partition coefficient greater than or equal to 7)
C[C@@H]1CC[C@H]2C(C)(C)[C@H]3C[C@@]12CC1OC(C)(C)OC13C (stereo partly drawn) [Material 674]	K (Log of liquid dish neat product liquid-air partition coefficient greater than or equal to 7)
CC(=O)C(C)=CC1C(C)=CCCC1(C)C (stereo not drawn) [Material 703]	K (Log of liquid dish neat product liquid-air partition coefficient greater than or equal to 7)
C=CCOC(=O)COC1CCCCC1 [Material 918]	K (Log of liquid dish neat product liquid-air partition coefficient greater than or equal to 7)

Same assay, conditions: code letter within the Comment Code cell

Structure (SMILES)	Log of liquid dish neat product liquid-air partition coefficient (Comment Code K/L)
C=CC(C)=CCCC(C)(C)O [Material 42]	K (Log of liquid dish neat product liquid-air partition coefficient greater than or equal to 7)
CCCCCCCCCCCCCC#N [Material 38]	K (Log of liquid dish neat product liquid-air partition coefficient greater than or equal to 7)
CC(C)C(=O)OCC=Cc1ccccc1 [Material 550]	K (Log of liquid dish neat product liquid-air partition coefficient greater than or equal to 7)
CC1CCCCCCCCCCCCC(=O)C1 (stereo not drawn) [Material 79]	K (Log of liquid dish neat product liquid-air partition coefficient greater than or equal to 7)
CC(O)C(C)/C=C1\C[C@H]2C[C@@H]1[C@@H]1C=CC[C@H]21 (stereo partly drawn) [Material 359]	K (Log of liquid dish neat product liquid-air partition coefficient greater than or equal to 7)
Cc1ccc(C(C)(C)O)cc1 [Material 4]	K (Log of liquid dish neat product liquid-air partition coefficient greater than or equal to 7)
CC1(C)CCCC2=C1CC(C=O)CC2 (stereo not drawn) [Material 486]	K (Log of liquid dish neat product liquid-air partition coefficient greater than or equal to 7)
CCCCCCCCC1CCC(=O)O1 (stereo not drawn) [Material 330]	K (Log of liquid dish neat product liquid-air partition coefficient greater than or equal to 7)
C=C(C)C1CC=C(C)C(O)C1 (stereo not drawn) [Material 531]	K (Log of liquid dish neat product liquid-air partition coefficient greater than or equal to 7)
CC(=O)[C@@]1(C)CC2=C(CCCC2(C)C)C[C@@H]1C [Material 215]	K (Log of liquid dish neat product liquid-air partition coefficient greater than or equal to 7)
CC(C)CC1CC(C)(O)CCO1 (stereo not drawn) [Material 350]	K (Log of liquid dish neat product liquid-air partition coefficient greater than or equal to 7)
O=C1CCCCCCCCCCCCCCCO1 [Material 277]	K (Log of liquid dish neat product liquid-air partition coefficient greater than or equal to 7)
CC(C=O)Cc1ccc(C(C)C)cc1 (stereo not drawn) [Material 478]	K (Log of liquid dish neat product liquid-air partition coefficient greater than or equal to 7)
CCCCCCCC(=O)OCc1ccco1 [Material 336]	K (Log of liquid dish neat product liquid-air partition coefficient greater than or equal to 7)
CCOC(=O)C1C2C=CC(C2)C1C(C)C (stereo not drawn) [Material 280]	K (Log of liquid dish neat product liquid-air partition coefficient greater than or equal to 7)
CC(C)C1OC2(CCCC2)OCC1(C)C (stereo not drawn) [Material 25]	K (Log of liquid dish neat product liquid-air partition coefficient greater than or equal to 7)
CC1OCC(c2ccccc2)O1 (stereo not drawn) [Material 190]	K (Log of liquid dish neat product liquid-air partition coefficient greater than or equal to 7)
CCC=CCC1C(=O)CCC1CC(=O)OC (stereo not drawn) [Material 112]	K (Log of liquid dish neat product liquid-air partition coefficient greater than or equal to 7)

Same assay, conditions: code letters K/L of the Comment Code

Structure (SMILES)	Log of liquid dish neat product liquid-air partition coefficient (Comment Code)
C=CC(=C)CCC=C(C)CCC=C(C)C=O [Material 613]	K (Log of liquid dish neat product liquid-air partition coefficient greater than or equal to 7)
CCCCCCCCCCC=CC=O [Material 930]	K (Log of liquid dish neat product liquid-air partition coefficient greater than or equal to 7)
CC1=C2CC(C(C)(C)O)CCC2(C)CCC1 (stereo not drawn) [Material 872]	K (Log of liquid dish neat product liquid-air partition coefficient greater than or equal to 7)
CC1CC=CCCCCCCCC(=O)OCC1 (stereo not drawn) [Material 1099]	K (Log of liquid dish neat product liquid-air partition coefficient greater than or equal to 7)
CC(C)=CCC=C(C)C1CC=C(C)CC1 (stereo not drawn) [Material 719]	K (Log of liquid dish neat product liquid-air partition coefficient greater than or equal to 7)
CC(C)Cc1ccc(CC(C)C=O)cc1 (stereo not drawn) [Material 1033]	K (Log of liquid dish neat product liquid-air partition coefficient greater than or equal to 7)
C[C@@H]1CC[C@H]2C(C)(C)[C@H]3C[C@@]12CC1OC(C)(C)OC13C (stereo partly drawn) [Material 674]	K (Log of liquid dish neat product liquid-air partition coefficient greater than or equal to 7)
CCC(=O)C=CC1C(C)=CCCC1(C)C (stereo not drawn) [Material 700]	K (Log of liquid dish neat product liquid-air partition coefficient greater than or equal to 7)
C=C(C)C1CCC2(C)CCC=C(C)C2C1 (stereo not drawn) [Material 692]	K (Log of liquid dish neat product liquid-air partition coefficient greater than or equal to 7)
CC(C)(O)CCc1ccccc1 [Material 639]	K (Log of liquid dish neat product liquid-air partition coefficient greater than or equal to 7)
C=C(C)C1CCC(C)(O)CC1 (stereo not drawn) [Material 612]	K (Log of liquid dish neat product liquid-air partition coefficient greater than or equal to 7)
CCOCOC1CCCCCCCCCCC1 [Material 607]	K (Log of liquid dish neat product liquid-air partition coefficient greater than or equal to 7)
